Measurements from patent US4851386A, “Method of treating precocious puberty” (Roussel Uclaf, priority 1979, dated 1989).

Legend:
ovarian steroidogenosis = assay: Inhibitory activity on ovarian steroidogenesis in women with normal menstrual cycles; assay type: in vivo
Procedure: The inhibitory activity of [D Ser (tbu)^6 des GlyNH2^10 ] LH-RH ethylamide on ovarian steroidogenosis in women was determined on 6 women aged 26 to 35 years with normal and regular menstrual cycles and without prior endocrinal or gynecological problems. The study was conducted for 6 consecutive cycles consisting of 2 pretreatment cycles, 2 treatment cycles and 2 post-treatment cycles. Two drops of a solution containing 500 μg of [D Ser (tbu)^6 des GlyNH2^10 ] LH--RH ethylamide were deposited on each nostril at 8 A.M. and 5 P.M. of a day between the 4th and 9th day after the peak of LH-day 0. Daily blood samples were taken between 4 and 6 P.M. to measure seric levels of LH, FSH, progesterone and estradiol which were determined by radioimmuno-logictests with double antibodies. The antibodies to measure LH and FSH were furnished by the National Pituitory Agency of N.I.H. of Bethesda, Md.
Estradiol and progesterone were measured with highly specific antibodies developed against 7-(O-carboxymethyl)-oxime of estradiol and 12-(O-carboxymethyl)-oxime of progesterone, respectively [3H] 17β-estradiol and ^125 I-progesterone-12-[O-carboxymethyl)-oxime]used as tracers. The serum was extracted with benzene and the steroids were separated with a LH-20 column before the determination. The radioimmunological results were exploited by the program derived from model II of Rodbard and Lewald as in Example 1 and the statistical significance was measured by the multiple level test of Ducan-Kramer of Example 1. The results are shown in the graphs of sheets 3 to 5 of the Figures.

[1] = tested on: testicular steroidogensis; assay: Inhibitory activity against testicular steroidogenesis in men in good health, single intranasal administration; assay type: in vivo; settings: for seric steroid/testosterone level on the fourth day after administration: fourth day (until 6th day)
Procedure: The inhibitory activity of [D Ser (tbu)^6 des GlyNH2^10 ] LH-RH ethylamide (described in German application Ser. No. 2,438,350) against testicular steroidogensis in men in good health was determined on men in good health aged 30 to 40 years. The said product was administered intranasally at a dose of 500 μg in a few drops of distilled water at 8 A.M. on the third day of the test. For 2 days prior to the treatment and for 6 days after the treatment, samples of blood were taken daily at 8 A.M., 3 P.M. and 10 P.M. On the day of administration of the LH--RH agonist, blood samples were taken at 11 A.M. and 6 P.M.
The seric concentrations of LH and FSH were measured by radioimmuno-logic dosages with double antibodies and the antibodies for measuring LH and FSH were furnished by the National Pituitary Agency of N.I.H. in Bethesda, Md. The seric concentrations of steroids was measured by radioimmuno-logic dosages in which one ml of serum was extracted with ether and the steroids were separated on a LH-20 column before measuring with radioimmuno-logic dosages. The radioimmuno-logic dosage results were determined by a program derived from model II of Rodbard et al [Second Karolinska Symposium on Research Methods in Reproductive Endrocinology, Diczfalusky Editor, Copenhague (1970), p. 79-103]. The statistical significance was determined by the "multiple level test" of Duncan-Kramer [Kramer, Biometrics, Vol 12 (1956), p. 307]. The results are shown in the graphs on sheet 1 of the Figures filed herewith.

[2] = 500 μg intranasal at 8 A.M. and 5 P.M. of one day in luteal phase, typical subject (sheet 3)
[3] = human, single intranasal dose 500 μg

CCNC(=O)[C@@H]1CCCN1C(=O)[C@H](CCCNC(=N)N)NC(=O)[C@H](CC(C)C)NC(=O)[C@@H](COC(C)(C)C)NC(=O)[C@H](Cc1ccc(O)cc1)NC(=O)[C@H](CO)NC(=O)[C@H](Cc1c[nH]c2ccccc12)NC(=O)[C@H](Cc1c[nH]cn1)NC(=O)[C@@H]1CCC(=O)N1 [[D Ser (tbu)^6 des GlyNH2^10] LH-RH ethylamide]
reduction of seric levels of progesterone compared to controls, first cycle of treatment (ovarian steroidogenosis; [2]): 13%
reduction of seric levels of progesterone compared to controls, second cycle of treatment (ovarian steroidogenosis; [2]): 34%
progesterone level of post-treatment cycles, pretreatment cycles = 100% (ovarian steroidogenosis; 12 cycles): 99%
progesterone level of treatment cycles, pretreatment cycles = 100% (ovarian steroidogenosis; 12 cycles): 46%
level of progesterone reduced by, compared to the controls (ovarian steroidogenosis; 12 cycles, sheet 5): 46%
course of seric progesterone level in the 2 cycles of treatment (ovarian steroidogenosis; sheet 4, return to normal for the 2 post-treatment cycles): accelerated diminution
duration of the drop of seric levels of testicular steroids (testosterone and precursors) [1, 3]: 3 days
seric steroid/testosterone level on the fourth day after administration [1, 3]: return to normal levels
seric steroid/testosterone level on the fourth day after administration ([1]; human, single intranasal dose 500 μg, listed as [D Ser (tbu)^6 des Gly NH2^10 ] LH-RH ethylamide): the level returned to normal
overall effect on testicular steroidogenesis ([1]; man, intranasal 500 μg): inhibition of testicular steroidogenesis
